Strand notation (5' to 3'): a small letter for the sugar, then the base; units joined by * are phosphorothioate-linked, units joined directly phosphodiester-linked; [ ] holds rarer units or linkages, { } end groups; capitals alone tell only the bases. e = 2'-O-(2-methoxyethyl) (MOE); k = constrained ethyl (cEt); [5mC] = 5-methylcytosine; d = 2'-deoxy (DNA)
Tested on: human PKK mRNA
Test: Antisense inhibition of human PKK mRNA in HepaRG cells, 1,000 nM, MOE/deoxy/cEt oligonucleotides (Example 3)
Type: cell-based
In short: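 Readout is percent PKK mRNA reduction against untreated controls, by real-time PCR (RTS3454) adjusted for total RNA via RIBOGREEN. Oligonucleotides, phosphorothioate gapmers of 16 nucleosides with cEt, MOE and deoxy sugars, were delivered at 1,000 nM by electroporation to 20,000 HepaRG cells/well for roughly 24 h.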

[1] = HepaRG cells, electroporation with 1,000 nM antisense oligonucleotide, approx. 24 hours, PKK mRNA by RT-PCR (RTS3454), relative to untreated control cells, Table 25 experiment
[2] = PKK mRNA, HepaRG cells, 1,000 nM antisense oligonucleotide, Table 31
[3] = HepaRG cells, electroporation with 1,000 nM antisense oligonucleotide, approximately 24 hours, primer probe set RTS3454, relative to untreated control cells, experiment of Table 24
[4] = Table 21 experiment, HepaRG cells, electroporation with 1,000 nM antisense oligonucleotide, approx. 24 hours, PKK mRNA by RT-PCR (RTS3454), relative to untreated control cells
[5] = HepaRG cells, 1,000 nM antisense oligonucleotide, Table 29
[6] = Table 28, HepaRG cells, 1,000 nM antisense oligonucleotide, human PKK mRNA
[7] = Table 20, HepaRG cells, electroporation with 1,000 nM antisense oligonucleotide, approximately 24 hours, PKK mRNA by RT-PCR (RTS3454), relative to untreated control cells
[8] = Table 22 experiment, HepaRG cells, electroporation with 1,000 nM antisense oligonucleotide, approx. 24 hours, PKK mRNA by RT-PCR (RTS3454), relative to untreated control cells
[9] = Table 30, human PKK mRNA, HepaRG cells, 1,000 nM antisense oligonucleotide
[10] = Table 27, HepaRG cells, 1,000 nM antisense oligonucleotide, human PKK mRNA
[11] = HepaRG cells, electroporation with 1,000 nM antisense oligonucleotide, approx. 24 hours, PKK mRNA by RT-PCR (RTS3454), relative to untreated control cells, Table 26 experiment
[12] = HepaRG cells, electroporation with 1,000 nM antisense oligonucleotide, approximately 24 hours, primer probe set RTS3454, relative to untreated control cells, experiment of Table 23
[13] = Table 19, HepaRG cells, electroporation with 1,000 nM antisense oligonucleotide, approximately 24 hours, PKK mRNA by RT-PCR (RTS3454), relative to untreated control cells

548225 (eA*eG*kT*d[5mC]*dA*d[5mC]*d[5mC]*dA*dT*dA*dG*dA*d[5mC]*k[5mC]*k[5mC]*eA; antisense) [compound 548225]
% inhibition [1]: 48%

548615 (antisense eT*eT*kG*dG*dT*dG*dG*d[5mC]*dG*dG*dG*dA*dT*k[5mC]*kG*eG) [compound 548615]
% inhibition [2]: 10%

548038 (eT*eA*kA*dT*dG*dT*d[5mC]*dT*dG*dA*d[5mC]*dA*dG*kA*kT*eT; antisense) [compound 548038]
% inhibition [3]: 67%

547757 (antisense eG*eA*kG*dT*d[5mC]*dT*d[5mC]*dT*dT*dG*dT*d[5mC]*dA*k[5mC]*kT*eT) [compound 547757]
% inhibition [4]: 69%

548545 (antisense e[5mC]*eT*k[5mC]*dT*dT*d[5mC]*dG*d[5mC]*dA*dT*dG*dG*dA*k[5mC]*kA*e[5mC]) [compound 548545]
% inhibition [5]: 46%

548494 (antisense eT*eG*kT*dG*dA*d[5mC]*d[5mC]*d[5mC]*d[5mC]*d[5mC]*d[5mC]*dA*d[5mC]*k[5mC]*kG*e[5mC]) [compound 548494]
% inhibition [6]: 39%

548480 (eG*e[5mC]*k[5mC]*dA*d[5mC]*dG*d[5mC]*d[5mC]*d[5mC]*dT*dT*dA*dG*k[5mC]*kA*eG; antisense) [compound 548480]
% inhibition [6]: 20%

547763 (antisense eG*eG*kT*dG*dA*dG*dT*d[5mC]*dT*d[5mC]*dT*dT*dG*kT*k[5mC]*eA) [compound 547763]
% inhibition [4]: 66%

547914 (eG*eG*k[5mC]*dA*dA*d[5mC]*dA*dT*d[5mC]*d[5mC]*dA*d[5mC]*dA*kT*k[5mC]*eT; antisense) [compound 547914]
% inhibition [7]: 74% | % inhibition [8]: 63%

548402 (e[5mC]*e[5mC]*k[5mC]*d[5mC]*dA*dT*d[5mC]*dT*d[5mC]*dG*dA*dA*dG*k[5mC]*k[5mC]*e[5mC]; antisense) [compound 548402]
% inhibition [9]: 45%

547839 (eG*e[5mC]*kT*dT*d[5mC]*dA*dA*dG*dG*dA*dA*dT*dG*kT*k[5mC]*e[5mC]; antisense) [compound 547839]
% inhibition [4]: 35%

548331 (antisense eA*e[5mC]*kA*dA*dT*d[5mC]*d[5mC]*d[5mC]*dT*dT*dA*dG*d[5mC]*k[5mC]*k[5mC]*eA) [compound 548331]
% inhibition [10]: 73%

547855 (antisense eT*eA*kT*d[5mC]*dA*dA*d[5mC]*dT*d[5mC]*d[5mC]*dT*dT*dT*kA*kT*eA) [compound 547855]
% inhibition [7]: 59% | % inhibition [8]: 38%

548657 (antisense eA*eG*k[5mC]*dA*dG*dG*dG*dT*dA*dT*d[5mC]*dT*dT*k[5mC]*kA*e[5mC]) [compound 548657]
% inhibition [2]: 26%

548279 (antisense e[5mC]*eA*k[5mC]*d[5mC]*dT*dA*dG*dA*dA*d[5mC]*dT*dA*dT*k[5mC]*k[5mC]*eA) [compound 548279]
% inhibition [11]: 39%

548679 (antisense eT*e[5mC]*kT*d[5mC]*dA*dA*dG*d[5mC]*dA*dG*d[5mC]*d[5mC]*dT*kA*kT*eT) [compound 548679]
% inhibition [2]: 0%

548244 (e[5mC]*eA*kT*dG*d[5mC]*dA*dT*dA*d[5mC]*dT*d[5mC]*dG*d[5mC]*k[5mC]*kT*eT; antisense) [compound 548244]
% inhibition [11]: 51%

548683 (antisense eA*eG*kT*dA*dT*d[5mC]*dT*d[5mC]*dA*dT*dG*dT*dG*k[5mC]*k[5mC]*eT) [compound 548683]
% inhibition [2]: 46%

548591 (eG*eT*kA*dA*dG*d[5mC]*d[5mC]*dT*dT*d[5mC]*dA*d[5mC]*dA*kG*kG*eG; antisense) [compound 548591]
% inhibition [5]: 3%

548608 (antisense eA*eT*k[5mC]*dG*dG*dT*dG*dG*dT*dG*dG*dG*dA*kT*kT*eG) [compound 548608]
% inhibition [5]: 25%

548476 (eG*e[5mC]*kA*dA*dA*dT*d[5mC]*d[5mC]*dT*dT*d[5mC]*d[5mC]*dA*kG*k[5mC]*eA; antisense) [compound 548476]
% inhibition [6]: 27%

548587 (eT*eT*k[5mC]*dT*dG*dG*dG*dA*dA*dA*d[5mC]*dT*d[5mC]*kT*k[5mC]*eT; antisense) [compound 548587]
% inhibition [5]: 45%

547940 (eT*eT*kT*d[5mC]*dT*dT*dT*dG*dT*dG*dA*d[5mC]*dT*k[5mC]*kG*eA; antisense) [compound 547940]
% inhibition [12]: 71%

548669 (antisense eA*eA*kT*dG*d[5mC]*dA*dG*dG*d[5mC]*d[5mC]*dA*dG*d[5mC]*kA*kT*e[5mC]) [compound 548669]
% inhibition [2]: 42%

548404 (eG*eA*kG*d[5mC]*d[5mC]*dT*dT*d[5mC]*d[5mC]*dG*d[5mC]*d[5mC]*dT*k[5mC]*kT*e[5mC]; antisense) [compound 548404]
% inhibition [9]: 37%

548077 (eA*eT*kT*dT*dG*dT*dT*dA*d[5mC]*d[5mC]*dA*dA*dA*kG*kG*eA; antisense) [compound 548077]
% inhibition [13]: 51%

547864 (antisense eT*eT*kG*dA*d[5mC]*dT*d[5mC]*d[5mC]*dT*d[5mC]*dT*d[5mC]*dA*kT*kA*eT) [compound 547864]
% inhibition [7]: 53% | % inhibition [8]: 73%

548468 (e[5mC]*eA*kA*d[5mC]*dA*dT*d[5mC]*dA*d[5mC]*dT*dG*dT*dA*k[5mC]*k[5mC]*eT; antisense) [compound 548468]
% inhibition [6]: 6%

548646 (antisense e[5mC]*eG*kT*dT*dT*d[5mC]*d[5mC]*d[5mC]*dT*d[5mC]*dA*dA*d[5mC]*kT*k[5mC]*e[5mC]) [compound 548646]
% inhibition [2]: 24%

547907 (eA*eT*kT*dT*d[5mC]*dT*dG*dA*dA*dA*dG*dG*dG*k[5mC]*kA*e[5mC]; antisense) [compound 547907]
% inhibition [7]: 27% | % inhibition [8]: 27%

548400 (eG*eG*kG*d[5mC]*dT*d[5mC]*d[5mC]*dT*dA*dT*dT*d[5mC]*d[5mC]*kA*k[5mC]*e[5mC]; antisense) [compound 548400]
% inhibition [9]: 13%

548508 (antisense eG*e[5mC]*kA*d[5mC]*d[5mC]*dA*d[5mC]*d[5mC]*dA*dT*dG*d[5mC]*dG*kG*kT*eT) [compound 548508]
% inhibition [6]: 43%

548235 (eT*e[5mC]*kT*dA*dG*dA*dT*dG*dA*d[5mC]*d[5mC]*dT*dG*kA*kA*eG; antisense) [compound 548235]
% inhibition [11]: 0%

547898 (e[5mC]*eT*kT*dT*dA*dA*dT*dA*dG*dG*d[5mC]*dA*dA*kT*kT*eG; antisense) [compound 547898]
% inhibition [7]: 0% | % inhibition [8]: 28%

548379 (eA*eT*k[5mC]*dG*dA*dA*d[5mC]*dT*d[5mC]*dT*dG*d[5mC]*dT*kT*kG*eA; antisense) [compound 548379]
% inhibition [10]: 44%

548285 (antisense eG*e[5mC]*kT*dT*dA*d[5mC]*dT*dT*dA*d[5mC]*dA*dT*d[5mC]*k[5mC]*k[5mC]*eT) [compound 548285]
% inhibition [11]: 52%

548652 (antisense e[5mC]*e[5mC]*kA*d[5mC]*dG*dA*dT*dG*d[5mC]*dT*d[5mC]*dT*dG*kG*k[5mC]*e[5mC]) [compound 548652]
% inhibition [2]: 65%

548232 (eG*e[5mC]*k[5mC]*dA*dT*dA*d[5mC]*dA*dT*d[5mC]*dT*dG*dA*kG*kG*eA; antisense) [compound 548232]
% inhibition [11]: 3%

548513 (antisense e[5mC]*e[5mC]*kT*dG*d[5mC]*dT*dG*dA*dT*dT*dG*dT*dG*kT*k[5mC]*eT) [compound 548513]
% inhibition [6]: 16%

548500 (antisense eA*eT*kT*dG*d[5mC]*dT*d[5mC]*dA*dG*dG*d[5mC]*d[5mC]*d[5mC]*k[5mC]*k[5mC]*eT) [compound 548500]
% inhibition [6]: 29%

548538 (antisense eT*eA*kG*dT*dG*dG*d[5mC]*dA*dA*dG*dA*dA*d[5mC]*k[5mC]*kA*e[5mC]) [compound 548538]
% inhibition [5]: 0%

548126 (eT*eG*k[5mC]*d[5mC]*dT*dA*dG*dA*d[5mC]*dT*d[5mC]*dT*dG*kG*kA*e[5mC]; antisense) [compound 548126]
% inhibition [13]: 19%

548058 (eG*e[5mC]*kA*dT*dA*dT*dT*dG*dG*dT*dT*dT*dT*kT*kG*eG; antisense) [compound 548058]
% inhibition [3]: 71%

547976 (antisense e[5mC]*e[5mC]*kA*dA*dA*dG*dT*d[5mC]*dA*dA*d[5mC]*dT*d[5mC]*k[5mC]*k[5mC]*eG) [compound 547976]
% inhibition [12]: 49%

548313 (eG*e[5mC]*k[5mC]*dT*dT*dT*dG*dA*dG*dG*dG*dA*dG*kT*kG*eG; antisense) [compound 548313]
% inhibition [10]: 35%

548191 (eG*eT*k[5mC]*dA*dA*d[5mC]*dA*dT*dA*dT*dT*d[5mC]*d[5mC]*kA*kT*eG; antisense) [compound 548191]
% inhibition [1]: 0%

— US11840686B2, “Modulation of prekallikrein (PKK) expression” (Ionis Pharmaceuticals, Inc., priority 2013, dated 2023)
